The text below walks through data of ChEMBL document CHEMBL1833885 (Bioorg Med Chem Lett, 2011).

The target in one assay is Carbonic anhydrase 9 (Homo sapiens, UniProt Q16790).
The next assay concerns the target Carbonic anhydrase 1 (Homo sapiens, UniProt P00915). The assay can be described thus: Inhibition of human carbonic anhydrase 1-catalyzed CO2 hydration activity by stopped flow assay.

Carbonic anhydrase 1, sequence (P00915 whole entry): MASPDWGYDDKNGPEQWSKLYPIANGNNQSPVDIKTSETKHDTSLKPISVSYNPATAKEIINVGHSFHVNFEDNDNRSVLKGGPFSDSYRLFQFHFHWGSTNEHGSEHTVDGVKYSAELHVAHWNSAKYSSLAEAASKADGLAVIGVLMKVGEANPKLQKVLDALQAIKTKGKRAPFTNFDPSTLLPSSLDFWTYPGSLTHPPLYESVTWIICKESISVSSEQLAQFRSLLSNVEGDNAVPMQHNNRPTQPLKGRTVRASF

In general, Ki refers to the dissociation constant of the complex between target and ligand, obtained from inhibition or displacement. `NS(=O)(=O)c1ccccc1C#Cc1ccccc1` registered a Ki on Carbonic anhydrase 9 of 6.37 µM.

In the case of `COc1cccc(C#Cc2ccc(S(N)(=O)=O)cc2)c1`, the affinity on Carbonic anhydrase 9 corresponds to a Ki of 0.0065 µM. Compared with the last compound, the Ki is about 980-fold lower.

The compound `NS(=O)(=O)c1ccc(C#Cc2cccc(F)c2)cc1` yielded a Ki on Carbonic anhydrase 9 of 0.0058 µM.

In the case of `NS(=O)(=O)c1ccccc1C#Cc1cccc(F)c1`, the Ki was found to be 416 µM at Carbonic anhydrase 1 and 8.45 µM at Carbonic anhydrase 9.

For the compound `Cc1ccc(C#Cc2ccccc2S(N)(=O)=O)cc1`, the figures for the Ki on Carbonic anhydrase 1 and at Carbonic anhydrase 9 were 674 µM and 8.6 µM, respectively.
